# Measured values from ChEMBL document CHEMBL1201862, “PubChem BioAssay data set” (2004).
#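 Interpolation was linear, between the two tested concentrations surrounding the appropriate level; five concentrations were tested over 48 hours in 96-well plates. At the GI50, growth is halved.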 Activity calls are given as the source filed them. Cut-off read from the data, not from the text of the source: active = GI50 up to about 1.1 µM and inactive = higher.
# Legend:
# Experiment in all cases: NCI-60 cell line screen, 48 h
# MDA-N = test system: MDA-N
# PC-3 = test system: PC-3
# NCI/ADR-RES = test system: NCI/ADR-RES
# MOLT-4 = test system: MOLT-4
# SNB-75 = test system: SNB-75
# NCI-H23 = test system: NCI-H23
# NCI-H522 = test system: NCI-H522
# SF-295 = test system: SF-295
# UO-31 = test system: UO-31
# KM12 = test system: KM12
# EKVX = test system: EKVX
# T47D = test system: T47D
# HOP-62 = test system: HOP-62
# NCI-H460 = test system: NCI-H460
# RPMI-8226 = test system: RPMI-8226
# NCI-H226 = test system: NCI-H226
# LOX IMVI = test system: LOX IMVI
# MDA-MB-435 = test system: MDA-MB-435
# OVCAR-8 = test system: OVCAR-8
# SK-MEL-28 = test system: SK-MEL-28
# HCT-116 = test system: HCT-116
# SN12C = test system: SN12C
# HCC 2998 = test system: HCC 2998
# DU-145 = test system: DU-145
# COLO 205 = test system: COLO 205
# RXF 393 = test system: RXF 393
# CAKI-1 = test system: CAKI-1
# SF-268 = test system: SF-268
# A549 = test system: A549
# 786-0 = test system: 786-0
# SK-MEL-5 = test system: SK-MEL-5
# SR = test system: SR
# U-251 = test system: U-251
# A498 = test system: A498
# IGROV-1 = test system: IGROV-1
# MDA-MB-231 = test system: MDA-MB-231
# BT-549 = test system: BT-549
# ACHN = test system: ACHN
# MCF7 = test system: MCF7
# K562 = test system: K562
# OVCAR-5 = test system: OVCAR-5
# SNB-19 = test system: SNB-19
# OVCAR-3 = test system: OVCAR-3
# Hs-578T = test system: Hs-578T
# HL-60 = test system: HL-60
# SW-620 = test system: SW-620
# UACC-62 = test system: UACC-62
# HCT-15 = test system: HCT-15
# TK-10 = test system: TK-10
# UACC-257 = test system: UACC-257
# Malme-3M = test system: Malme-3M
# CCRF-CEM = test system: CCRF-CEM
# SK-MEL-2 = test system: SK-MEL-2
# OVCAR-4 = test system: OVCAR-4
# M14 = test system: M14
# HOP-92 = test system: HOP-92
# SK-OV-3 = test system: SK-OV-3
# HT-29 = test system: HT-29
# SF-539 = test system: SF-539
smiles,measurement,setting,value
CCOC(=O)c1cc2c3ccn(Cc4ccccc4)c3c3c(C)noc3c2[nH]1,GI50,MDA-N,> 100 µM (inactive)
same,GI50,PC-3,> 100 µM (inactive)
same,GI50,NCI/ADR-RES,> 100 µM (inactive)
same,GI50,MOLT-4,> 100 µM (inactive)
same,GI50,SNB-75,74.6 µM (inactive)
same,GI50,NCI-H23,> 100 µM (inactive)
same,GI50,NCI-H522,> 100 µM (inactive)
same,GI50,SF-295,> 100 µM (inactive)
same,GI50,UO-31,> 100 µM (inactive)
same,GI50,KM12,> 100 µM (inactive)
same,GI50,EKVX,> 100 µM (inactive)
same,GI50,T47D,> 100 µM (inactive)
same,GI50,HOP-62,> 100 µM (inactive)
same,GI50,NCI-H460,> 100 µM (inactive)
same,GI50,RPMI-8226,> 100 µM (inactive)
same,GI50,NCI-H226,> 100 µM (inactive)
same,GI50,LOX IMVI,> 100 µM (inactive)
same,GI50,MDA-MB-435,> 100 µM (inactive)
same,GI50,OVCAR-8,> 100 µM (inactive)
same,GI50,SK-MEL-28,> 100 µM (inactive)
same,GI50,HCT-116,> 100 µM (inactive)
same,GI50,SN12C,> 100 µM (inactive)
same,GI50,HCC 2998,> 100 µM (inactive)
same,GI50,DU-145,> 100 µM (inactive)
same,GI50,COLO 205,> 100 µM (inactive)
same,GI50,RXF 393,> 100 µM (inactive)
same,GI50,CAKI-1,> 100 µM (inactive)
same,GI50,SF-268,> 100 µM (inactive)
same,GI50,A549,> 100 µM (inactive)
same,GI50,786-0,> 100 µM (inactive)
same,GI50,SK-MEL-5,> 100 µM (inactive)
same,GI50,SR,> 100 µM (inactive)
same,GI50,U-251,> 100 µM (inactive)
same,GI50,A498,> 100 µM (inactive)
same,GI50,IGROV-1,> 100 µM (inactive)
same,GI50,MDA-MB-231,> 100 µM (inactive)
same,GI50,BT-549,> 100 µM (inactive)
same,GI50,ACHN,> 100 µM (inactive)
same,GI50,MCF7,> 100 µM (inactive)
same,GI50,K562,> 100 µM (inactive)
same,GI50,OVCAR-5,> 100 µM (inactive)
same,GI50,SNB-19,> 100 µM (inactive)
same,GI50,OVCAR-3,> 100 µM (inactive)
same,GI50,Hs-578T,> 100 µM (inactive)
same,GI50,HL-60,> 100 µM (inactive)
same,GI50,SW-620,> 100 µM (inactive)
same,GI50,UACC-62,> 100 µM (inactive)
same,GI50,HCT-15,> 100 µM
same,GI50,TK-10,> 100 µM (inactive)
same,GI50,UACC-257,> 100 µM (inactive)
same,GI50,Malme-3M,> 100 µM (inactive)
same,GI50,CCRF-CEM,> 100 µM (inactive)
same,GI50,SK-MEL-2,> 100 µM (inactive)
same,GI50,OVCAR-4,> 100 µM (inactive)
same,GI50,M14,> 100 µM (inactive)
Cc1nc2ccccc2c(=O)n1/N=C/c1ccc(N(C)C)cc1,GI50,MDA-N,> 100 µM (inactive)
same,GI50,PC-3,> 100 µM (inactive)
same,GI50,NCI/ADR-RES,86.9 µM (inactive)
same,GI50,MOLT-4,> 100 µM (inactive)
same,GI50,SNB-75,15.4 µM (inactive)
same,GI50,NCI-H23,78 µM (inactive)
same,GI50,NCI-H522,15.6 µM (inactive)
same,GI50,SF-295,43.6 µM (inactive)
same,GI50,KM12,> 100 µM (inactive)
same,GI50,EKVX,> 100 µM (inactive)
same,GI50,T47D,> 100 µM (inactive)
same,GI50,HOP-62,34.2 µM (inactive)
same,GI50,NCI-H460,> 100 µM (inactive)
same,GI50,HOP-92,48.5 µM (inactive)
same,GI50,RPMI-8226,4.24 µM (inactive)
same,GI50,NCI-H226,> 100 µM (inactive)
same,GI50,LOX IMVI,> 100 µM (inactive)
same,GI50,MDA-MB-435,> 100 µM (inactive)
same,GI50,OVCAR-8,53.5 µM (inactive)
same,GI50,SK-MEL-28,> 100 µM (inactive)
same,GI50,HCT-116,> 100 µM (inactive)
same,GI50,SN12C,> 100 µM (inactive)
same,GI50,HCC 2998,> 100 µM (inactive)
same,GI50,DU-145,> 100 µM (inactive)
same,GI50,COLO 205,> 100 µM (inactive)
same,GI50,CAKI-1,> 100 µM (inactive)
same,GI50,SF-268,33.7 µM (inactive)
same,GI50,A549,> 100 µM (inactive)
same,GI50,786-0,71.4 µM (inactive)
same,GI50,SK-MEL-5,> 100 µM (inactive)
same,GI50,SR,> 100 µM (inactive)
same,GI50,U-251,45 µM (inactive)
same,GI50,A498,> 100 µM (inactive)
same,GI50,IGROV-1,> 100 µM (inactive)
same,GI50,MDA-MB-231,32.9 µM (inactive)
same,GI50,SK-OV-3,83.6 µM (inactive)
same,GI50,BT-549,46 µM (inactive)
same,GI50,ACHN,> 100 µM (inactive)
same,GI50,MCF7,> 100 µM (inactive)
same,GI50,OVCAR-5,> 100 µM (inactive)
same,GI50,SNB-19,24.8 µM (inactive)
same,GI50,OVCAR-3,> 100 µM (inactive)
same,GI50,Hs-578T,15.3 µM (inactive)
same,GI50,HL-60,> 100 µM (inactive)
same,GI50,SW-620,> 100 µM (inactive)
same,GI50,UACC-62,71.8 µM (inactive)
same,GI50,HCT-15,> 100 µM
same,GI50,TK-10,> 100 µM (inactive)
same,GI50,UACC-257,> 100 µM (inactive)
same,GI50,Malme-3M,> 100 µM (inactive)
same,GI50,CCRF-CEM,> 100 µM (inactive)
same,GI50,HT-29,> 100 µM (inactive)
same,GI50,SF-539,> 100 µM (inactive)
same,GI50,SK-MEL-2,> 100 µM (inactive)
same,GI50,OVCAR-4,> 100 µM (inactive)
same,GI50,M14,> 100 µM (inactive)
CN1/C(=C\N=O)C(C)(C)N(O)C1(C)C,GI50,MDA-N,> 100 µM (inactive)
same,GI50,PC-3,> 100 µM (inactive)
same,GI50,NCI/ADR-RES,> 100 µM (inactive)
same,GI50,MOLT-4,> 100 µM (inactive)
same,GI50,SNB-75,> 100 µM (inactive)
same,GI50,NCI-H23,> 100 µM (inactive)
same,GI50,NCI-H522,> 100 µM (inactive)
same,GI50,SF-295,> 100 µM (inactive)
same,GI50,UO-31,> 100 µM (inactive)
same,GI50,KM12,> 100 µM (inactive)
same,GI50,EKVX,> 100 µM (inactive)
same,GI50,T47D,> 100 µM (inactive)
same,GI50,HOP-62,> 100 µM (inactive)
same,GI50,NCI-H460,> 100 µM (inactive)
same,GI50,HOP-92,> 100 µM (inactive)
same,GI50,RPMI-8226,> 100 µM (inactive)
same,GI50,NCI-H226,> 100 µM (inactive)
same,GI50,LOX IMVI,> 100 µM (inactive)
same,GI50,MDA-MB-435,> 100 µM (inactive)
same,GI50,OVCAR-8,> 100 µM (inactive)
same,GI50,SK-MEL-28,> 100 µM (inactive)
same,GI50,HCT-116,> 100 µM (inactive)
same,GI50,SN12C,> 100 µM (inactive)
same,GI50,HCC 2998,> 100 µM (inactive)
same,GI50,DU-145,> 100 µM (inactive)
same,GI50,COLO 205,> 100 µM (inactive)
same,GI50,CAKI-1,> 100 µM (inactive)
same,GI50,SF-268,> 100 µM (inactive)
same,GI50,A549,> 100 µM (inactive)
same,GI50,786-0,> 100 µM (inactive)
same,GI50,SK-MEL-5,> 100 µM (inactive)
same,GI50,SR,> 100 µM (inactive)
same,GI50,U-251,> 100 µM (inactive)
same,GI50,IGROV-1,> 100 µM (inactive)
same,GI50,MDA-MB-231,> 100 µM (inactive)
same,GI50,SK-OV-3,> 100 µM (inactive)
same,GI50,BT-549,> 100 µM (inactive)
same,GI50,ACHN,> 100 µM (inactive)
same,GI50,MCF7,> 100 µM (inactive)
same,GI50,K562,> 100 µM (inactive)
same,GI50,OVCAR-5,> 100 µM (inactive)
same,GI50,SNB-19,> 100 µM (inactive)
same,GI50,OVCAR-3,> 100 µM (inactive)
same,GI50,Hs-578T,> 100 µM (inactive)
same,GI50,HL-60,> 100 µM (inactive)
same,GI50,SW-620,> 100 µM (inactive)
same,GI50,UACC-62,> 100 µM (inactive)
same,GI50,HCT-15,> 100 µM
same,GI50,TK-10,> 100 µM (inactive)
same,GI50,UACC-257,> 100 µM (inactive)
same,GI50,Malme-3M,> 100 µM (inactive)
same,GI50,CCRF-CEM,> 100 µM (inactive)
same,GI50,HT-29,> 100 µM (inactive)
same,GI50,SF-539,> 100 µM (inactive)
same,GI50,SK-MEL-2,> 100 µM (inactive)
same,GI50,OVCAR-4,> 100 µM (inactive)
same,GI50,M14,> 100 µM (inactive)
